Patent US12612360B2 (Sanofi, priority 2020, dated 2026)

Molecular target: T1, ERα (Homo sapiens, UniProt P03372)
T1 construct: host or cells: MCF7
T1 sequence (P03372 1-595): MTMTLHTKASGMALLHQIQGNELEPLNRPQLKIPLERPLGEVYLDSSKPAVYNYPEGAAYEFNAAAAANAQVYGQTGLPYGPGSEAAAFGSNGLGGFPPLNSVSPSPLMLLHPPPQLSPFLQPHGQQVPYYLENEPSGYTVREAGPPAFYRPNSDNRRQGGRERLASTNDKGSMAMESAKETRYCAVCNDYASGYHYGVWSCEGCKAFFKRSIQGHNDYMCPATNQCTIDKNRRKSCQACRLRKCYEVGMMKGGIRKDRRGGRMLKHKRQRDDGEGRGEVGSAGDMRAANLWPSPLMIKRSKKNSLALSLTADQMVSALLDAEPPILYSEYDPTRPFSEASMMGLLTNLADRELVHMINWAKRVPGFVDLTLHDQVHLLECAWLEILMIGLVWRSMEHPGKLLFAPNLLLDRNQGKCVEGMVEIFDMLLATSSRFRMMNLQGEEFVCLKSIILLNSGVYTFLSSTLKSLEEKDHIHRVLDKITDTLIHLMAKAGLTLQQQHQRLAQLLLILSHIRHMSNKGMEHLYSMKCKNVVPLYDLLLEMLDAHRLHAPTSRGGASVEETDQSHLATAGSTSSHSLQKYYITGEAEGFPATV
Experiment: Estrogen receptor degradation activity: breast cancer cell ERα in cell western assay (MCF7 cells)
Assay type: cell-based
Conditions: for % Degradation At 0.3 μM: 4 hours, relative to fulvestrant 0.1 μM positive control; for DC50: 4 hours post compound addition, concentration which degrades 50% of the estrogen receptor, read-out: Degradation IC50
Summary of the method: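 In-cell western readout: ERα immunofluorescence (Alexa 488) normalised to DNA signal (Syto-64) after formalin fixation. Compounds dosed for 4 h on MCF7 cells in stripped-serum, phenol-red-free medium over nine 1:5 steps, 0.3 to […] final; fulvestrant 0.1 μM control. IC50 in nM for 50% ERα degradation.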

Row | Compound | % Degradation At 0.3 μM | DC50
1 | O=C(O)c1ccc2c(c1)CCCC(c1c(F)ccc3c1CCC3)=C2c1ccc(C=C2CN(CCC(F)F)C2)cc1 [Example 160, 9-(4-((1-(3,3-difluoropropyl)azetidin-3-ylidene)methyl)phenyl)-8-(5-fluoro-2,3-dihydro-1H-inden-4-yl)-6,7-dihydro-5H-benzo[7]annulene-3-carboxylic acid] | 93% | 0.6 nM
2 | O=C(O)c1ccc2c(c1)CCCC(c1ccc3c(c1F)CCC3)=C2c1ccc(C=C2CN(CCC(F)F)C2)cc1 [Example 161, 9-(4-((1-(3,3-difluoropropyl)azetidin-3-ylidene)methyl)phenyl)-8-(4-fluoro-2,3-dihydro-1H-inden-5-yl)-6,7-dihydro-5H-benzo[7]annulene-3-carboxylic acid] | 92% | 1.2 nM
3 | O=C(O)c1ccc2c(c1)CCCC(c1cc(F)cc3c1CCC3)=C2c1ccc(C=C2CN(CCC(F)F)C2)cc1 [Example 162, 9-(4-((1-(3,3-difluoropropyl)azetidin-3-ylidene)methyl)phenyl)-8-(6-fluoro-2,3-dihydro-1H-inden-4-yl)-6,7-dihydro-5H-benzo[7]annulene-3-carboxylic acid] | 93% | 1.9 nM
4 | O=C(O)c1ccc2c(c1)CCCC(c1cccc3c1CCC3)=C2c1ccc(C=C2CN(CCC(F)F)C2)cc1 [Example 163, 9-(4-((1-(3,3-difluoropropyl)azetidin-3-ylidene)methyl)phenyl)-8-(2,3-dihydro-1H-inden-4-yl)-6,7-dihydro-5H-benzo[7]annulene-3-carboxylic acid] | 98% | 0.8 nM
5 | O=C(O)c1ccc2c(c1)CCCC(c1cccc3c1CCC3(F)F)=C2c1ccc(C=C2CN(CCC(F)F)C2)cc1 [Example 164, 8-(1,1-difluoro-2,3-dihydro-1H-inden-4-yl)-9-(4-((1-(3,3-difluoropropyl)azetidin-3-ylidene)methyl)phenyl)-6,7-dihydro-5H-benzo[7]annulene-3-carboxylic acid] | 93% | 1.4 nM
6 | O=C(O)c1ccc2c(c1)CCCC(c1ccc(F)c3c1CCC3)=C2c1ccc(C=C2CN(CCC(F)F)C2)cc1 [Example 165, 9-(4-((1-(3,3-difluoropropyl)azetidin-3-ylidene)methyl)phenyl)-8-(7-fluoro-2,3-dihydro-1H-inden-4-yl)-6,7-dihydro-5H-benzo[7]annulene-3-carboxylic acid] | 96% | 1.9 nM
7 | O=C(O)c1ccc2c(c1)CCCC(Cc1ccccc1)=C2c1ccc(C=C2CN(CCCF)C2)cc1 [Example 167, 8-benzyl-9-(4-((1-(3-fluoropropyl)azetidin-3-ylidene)methyl)phenyl)-6,7-dihydro-acid] | 89% | 1.1 nM
8 | O=C(O)c1ccc2c(c1)CCCC(CCc1ccccc1)=C2c1ccc(C=C2CN(CCCF)C2)cc1 [Example 168, 9-(4-((1-(3-fluoropropyl)azetidin-3-ylidene)methyl)phenyl)-8-phenethyl-6,7-dihydro-5H-benzo[7]annulene-3-carboxylic acid] | 95% | 0.3 nM
9 | O=C(O)c1ccc2c(c1)CCCC(CC1CCC1)=C2c1ccc(C=C2CN(CCCF)C2)cc1 [Example 169, 8-(cyclobutylmethyl)-9-(4-((1-(3-fluoropropyl)azetidin-3-ylidene)methyl)phenyl)-6,7-dihydro-5H-benzo[7]annulene-3-carboxylic acid] | 90% | 0.3 nM
10 | Oc1ccc2c(c1)CCCC(c1ccc(Cl)cc1Cl)=C2c1ccc(C=C2CN(CCCF)C2)cc1 [Example 170, 8-(2,4-dichlorophenyl)-9-(4-((1-(3-fluoropropyl)azetidin-3-ylidene)methyl)phenyl)-6,7-dihydro-5H-benzo[7]annulen-3-ol] | 85% | 0.2 nM
11 | O=C(O)c1ccc2c(c1)CCCC([C@H]1[C@@H]3CCCC[C@@H]31)=C2c1ccc(C=C2CN(CCCF)C2)cc1 [Example 174, 84(1R,6S,70-bicyclo[4.1.0]heptan-7-yl)-9-(4-((1-(3-fluoropropyl)azetidin-3-ylidene)methyl)phenyl)-6,7-dihydro-5H-benzo[7]annulene-3-carboxylic acid] | 86% | 2.6 nM
12 | O=C(O)c1ccc2c(c1)CCCC(C13CCCC1C3)=C2c1ccc(C=C2CN(CCCF)C2)cc1 (stereo not shown) [Example 175, 8-(bicyclo[3.1.0]hexan-1-yl)-9-(4-((1-(3-fluoropropyl)azetidin-3-ylidene)methyl)phenyl)-6,7-dihydro-5H-benzo[7]annulene-3-carboxylic acid] | 87% | 0.3 nM
13 | O=C(O)c1ccc2c(c1)CCCC(C1CC13CCC3)=C2c1ccc(C=C2CN(CCCF)C2)cc1 (stereo not shown) [Example 176, 9-(4-((1-(3-fluoropropyl)azetidin-3-ylidene)methyl)phenyl)-8-(spiro[2.3]hexan-1-yl)-6,7-dihydro-5H-benzo[7]annulene-3-carboxylic acid] | 93% | 0.3 nM
14 | O=C(O)c1ccc2c(c1)CCCC(c1cccc3c1CCCC3)=C2c1ccc(C=C2CN(CCCF)C2)cc1 [Example 177, 9-(4-((1-(3-fluoropropyl)azetidin-3-ylidene)methyl)phenyl)-8-(5,6,7,8-tetrahydronaphthalen-1-yl)-6,7-dihydro-5H-benzo[7]annulene-3-carboxylic acid] | 92% | 1 nM
15 | O=C(O)c1ccc2c(c1)CCCC(C1CC3CCC(C3)C1)=C2c1ccc(C=C2CN(CCCF)C2)cc1 (stereo not shown) [Example 178, 8-(bicyclo[3.2.1]octan-3-yl)-9-(4-((1-(3-fluoropropyl)azetidin-3-ylidene)methyl)phenyl)-6,7-dihydro-5H-benzo[7]annulene-3-carboxylic acid] | 95% | 1.4 nM
16 | O=C(O)c1ccc2c(c1)CCCC(c1cccc(Cl)c1)=C2c1ccc(C=C2CN(CCCF)C2)cc1 [Example 180, 8-(3-chlorophenyl)-9-(4-((1-(3-fluoropropyl)azetidin-3-ylidene)methyl)phenyl)-6,7-dihydro-5H-benzo[7]annulene-3-carboxylic acid] | 90% | 0.5 nM
17 | O=C(O)c1ccc2c(c1)CCCC(c1ccc(Cl)cc1)=C2c1ccc(C=C2CN(CCCF)C2)cc1 [Example 181, 8-(4-chlorophenyl)-9-(4-((1-(3-fluoropropyl)azetidin-3-ylidene)methyl)phenyl)-6,7-dihydro-5H-benzo[7]annulene-3-carboxylic acid] | 91% | 0.5 nM
18 | Cl.O=C(O)c1ccc2c(c1)CCCC(c1cccc(C(F)(F)F)c1)=C2c1ccc(C=C2CN(CCCF)C2)cc1 [Example 182, 9-(4-((1-(3-fluoropropyl)azetidin-3-ylidene)methyl)phenyl)-8-(3-(trifluoromethyl)phenyl)-6,7-dihydro-5H-benzo[7]annulene-3-carboxylic acid hydrochloride] | 89% | 0.6 nM
19 | Cl.O=C(O)c1ccc2c(c1)CCCC(c1ccccc1C(F)(F)F)=C2c1ccc(C=C2CN(CCCF)C2)cc1 [Example 183, 9-(4-((1-(3-fluoropropyl)azetidin-3-ylidene)methyl)phenyl)-8-(2-(trifluoromethyl)phenyl)-6,7-dihydro-5H-benzo[7]annulene-3-carboxylic acid hydrochloride] | 92% | 0.4 nM
20 | Cl.O=C(O)c1ccc2c(c1)CCCC(c1ccc(C(F)(F)F)cc1)=C2c1ccc(C=C2CN(CCCF)C2)cc1 [Example 185, 9-(4-((1-(3-fluoropropyl)azetidin-3-ylidene)methyl)phenyl)-8-(4-(trifluoromethyl)phenyl)-6,7-dihydro-5H-benzo[7]annulene-3-carboxylic acid hydrochloride] | 90% | 0.5 nM
